# Results as given in patent US20050197350A1, “Novel quinoline, tetrahydroquinazoline, and pyrimidine derivatives and methods of treatment related to the use thereof” (TAISHO PHARMACEUTICAL CO., LTD., priority 2003, published 2005).
# Tested on: MCH receptors
# Assay: MCH receptor activity class (method not given)
# Conditions: activity class per percent of control at 10^-7 M or IC50
row,Compound,class
1,CN(C)c1cc(N[C@H]2CC[C@@H](CNCc3ccc(O)cc3Cl)CC2)nc2ccccc12 [compound 1146],3 (Class 3 The value of percent of control at 10^−7 M was more than 60% or the value of IC50 was more than 200 nM.)
2,CN(C)c1cc(N[C@H]2CC[C@@H](CNCc3ccccc3C#N)CC2)nc2ccccc12 [compound 1147],3 (Class 3 The value of percent of control at 10^−7 M was more than 60% or the value of IC50 was more than 200 nM.)
3,CN(C)c1cc(N[C@H]2CC[C@@H](CNCc3ccc(Cl)cc3)CC2)nc2ccccc12 [compound 1149],3 (Class 3 The value of percent of control at 10^−7 M was more than 60% or the value of IC50 was more than 200 nM.)
4,CCN(CC)c1ccc(CNC[C@H]2CC[C@@H](Nc3cc(N(C)C)c4ccccc4n3)CC2)cc1 [compound 1150],3 (Class 3 The value of percent of control at 10^−7 M was more than 60% or the value of IC50 was more than 200 nM.)
5,CN(C)c1ccc(CNC[C@H]2CC[C@@H](Nc3cc(N(C)C)c4ccccc4n3)CC2)cc1 [compound 1151],3 (Class 3 The value of percent of control at 10^−7 M was more than 60% or the value of IC50 was more than 200 nM.)
6,CCn1c2ccccc2c2cc(CNC[C@H]3CC[C@@H](Nc4cc(N(C)C)c5ccccc5n4)CC3)ccc21 [compound 1152],3 (Class 3 The value of percent of control at 10^−7 M was more than 60% or the value of IC50 was more than 200 nM.)
7,CN(C)c1cc(N[C@H]2CC[C@@H](CNCc3cc(C(F)(F)F)ccc3F)CC2)nc2ccccc12 [compound 1153],3 (Class 3 The value of percent of control at 10^−7 M was more than 60% or the value of IC50 was more than 200 nM.)
8,CN(C)c1cc(N[C@H]2CC[C@@H](CNCc3ccc(O)cc3)CC2)nc2ccccc12 [compound 1154],3 (Class 3 The value of percent of control at 10^−7 M was more than 60% or the value of IC50 was more than 200 nM.)

# Same assay, conditions: class by percent of control at 10^-7 M or IC50
row,Compound,class
1,CN(C)c1cc(N[C@H]2CC[C@@H](CNCc3ccc(CO)o3)CC2)nc2ccccc12 [compound 1155],3 (Class 3 The value of percent of control at 10^−7 M was more than 60% or the value of IC50 was more than 200 nM.)
2,CC(C)Oc1ccc(CNC[C@H]2CC[C@@H](Nc3cc(N(C)C)c4ccccc4n3)CC2)cc1 [compound 1156],3 (Class 3 The value of percent of control at 10^−7 M was more than 60% or the value of IC50 was more than 200 nM.)
3,CCc1ccc(CNC[C@H]2CC[C@@H](Nc3cc(N(C)C)c4ccccc4n3)CC2)s1 [compound 1157],3 (Class 3 The value of percent of control at 10^−7 M was more than 60% or the value of IC50 was more than 200 nM.)
4,CN(C)c1cc(N[C@H]2CC[C@@H](CNCC=C(c3ccccc3)c3ccccc3)CC2)nc2ccccc12 [compound 1158],1 (Class 1: The value of percent of control at 10^−7 M was less than 40% or the value of IC50 was less than 50 nM.)
5,CCOc1cc(CNC[C@H]2CC[C@@H](Nc3cc(N(C)C)c4ccccc4n3)CC2)ccc1O [compound 1159],3 (Class 3 The value of percent of control at 10^−7 M was more than 60% or the value of IC50 was more than 200 nM.)
6,CN(C)c1cc(N[C@H]2CC[C@@H](CNCc3ccc(N(C)C)c4ccccc34)CC2)nc2ccccc12 [compound 1160],3 (Class 3 The value of percent of control at 10^−7 M was more than 60% or the value of IC50 was more than 200 nM.)
7,COc1cc(OC)c(CNC[C@H]2CC[C@@H](Nc3cc(N(C)C)c4ccccc4n3)CC2)c(OC)c1 [compound 1161],2 (Class 2: The value of percent of control at 10^−7 M was from 40% to 60% or the value of IC′50 was from 50 nM to 200 nM.)
8,CN(C)c1cc(N[C@H]2CC[C@@H](CNCc3cc(Cl)cc(Br)c3O)CC2)nc2ccccc12 [compound 1162],3 (Class 3 The value of percent of control at 10^−7 M was more than 60% or the value of IC50 was more than 200 nM.)
9,CN(C)c1cc(N[C@H]2CC[C@@H](CNCc3cccc(C#N)c3)CC2)nc2ccccc12 [compound 1163],3 (Class 3 The value of percent of control at 10^−7 M was more than 60% or the value of IC50 was more than 200 nM.)
